Measurements taken from patent US20160238590A1, “COMPOSITIONS AND METHODS RELATED TO OAT SENSITIVITY” (IMMUSANT, INC., priority 2013, published 2016).
[ ]: non-standard residue; d: D form. pGlu = O=C1CC[C@@H](C(=O)O)N1

Key:
Format in all cases: cell-based, human
PBMC [1] = test: IFN-γ ELISpot on PBMC of CD patients after 3-day barley challenge; conditions: for response following barley challenge: 3 oats responders, titrating concentrations (FIG. 1b); for patients responding following pure barley challenge: 3 patients that had previously responded to avenin peptides following oats challenge; for responses compared with DQ2.5-ave-1c responses: third patient; for responses compared with DQ2.5-ave-1c responses / responses compared with DQ2.5-hor-3a responses: after barley challenge (FIG. 1b); for responses compared with DQ2.5-hor-3a responses: 2/3 patients
How it was run: (§1)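 PBMC from HLA-DQ2.5+/DQ8+ biopsy-proven coeliac patients on gluten-free diet ≥4 weeks, collected on day 6 after starting a 3-day oral challenge (oats 100 g/day, barley 150 g/day, or wheat/barley/rye muffins 22-25 g each daily). Responses to avenin, hordein and gluten peptide libraries, some deamidated or tTG-treated, measured by IFN-γ ELISpot.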

PBMC [2] = test: IFN-γ ELISpot on PBMC of CD patients after combined wheat, barley, and rye challenge
Excerpt: Australian Caucasian HLA-DQ2.5^+ and/or HLA-DQ8^+ CD subjects were recruited by advertisement in the Coeliac Society of Victoria newsletter and all had biopsy-proven CD conforming to ESPGHAN criteria. Patients had been on strict gluten free diet for at least 4 weeks prior to commencing grain challenge. Patients underwent 3-day grain challenge with oats, barley, or combined wheat, barley, and rye muffins, and 6 days after commencement, blood was collected. Day 0 responses were not observed in the selection of patients tested, as described previously^8.
Oats challenge consisted of 100 g dry weight daily of one of three commercial brands of oats: one not tested for wheat contamination (Uncle Toby's; Oats #1), and two shown by R5 ELISA to contain less than 20 ppm wheat gluten (Tilquhilie Pudding; Oats #2 and Freedom Food; Oats #3). Barley challenge consisted of pearl barley (Ward McKenzie) cooked into a risotto (150 g dry weight daily) and the wheat challenge consisted of four 50 g slices of wheat bread daily (Baker's Delight white loaf cut to toasting thickness). The combined wheat, barley, and rye challenge consisted of muffins baked with wheat flour (White Wings), barley flour (Four Leaf Milling), and rye flour (Four Leaf Milling; 22-25 g dry weight each daily). A symptom diary based on a […] Likert scale was completed by participants daily from baseline until day 6.
Two avenin peptide libraries were utilized for epitope screening. These were designed using avenin sequences from GenBank and a customized algorithm, as previously described^9. The initial library consisted of 199 screening-grade 20 mers including all possible 12 mers (Mimotopes). This library was screened with and without tTG pre-treatment. The second library consisted of additional avenin sequences that were synthesized with glutamate substitution at sites predicted to be deamidated by published algorithms^10, 11 removing the requirement for tTG treatment. This library contained 369 screening-grade 20 mers, including all possible 12 mers (Pepscan). The second round avenin library contained wild-type and deamidated versions of the most immunogenic sequences (25 high quality 16 mers from Mimotopes). High quality peptides containing previously described immunogenic sequences from wheat, barley, and rye were used to test for cross-reactivity^8 (Pepscan). High quality hordein and avenin peptides for TCC testing and biochemical studies were ordered from Pepscan, Mimotopes, or GL Biochem.
Peripheral blood mononuclear cells (PBMC) were isolated from heparinized whole blood using Ficoll-Paque™ Plus density-gradient centrifugation (GE Healthcare). IFN-γ ELISpot (Mabtech) was set up as previously described^8.

Patient 10 TCC-01 = test: IFN-γ ELISpot with T cell clone; conditions: TCC Patient 10 TCC-01, peptide 50 μg/mL
How it was run: (§2)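 Patient-derived T cell clones were isolated by CFSE-based proliferation to antigen followed by single-cell sorting, then expanded in IL-2 and IL-4. Specificity was tested by IFN-γ ELISpot using irradiated HLA-matched PBMC as antigen-presenting cells.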

Patient 14 TCC-01 = test: IFN-γ ELISpot with T cell clone; conditions: TCC Patient 14 TCC-01, peptide 50 μg/mL
How it was run: as §2

Patient 2 TCC-01 = test: IFN-γ ELISpot with T cell clone
How it was run: as §2

Patient 2 TCC-02 = test: IFN-γ ELISpot with T cell clone; conditions: TCC Patient 2 TCC-02, peptide 25 μg/mL
How it was run: as §2

Patient 2 TCC-03 = test: IFN-γ ELISpot with T cell clone; conditions: TCC Patient 2 TCC-03, peptide 25 μg/mL
How it was run: as §2

Patient 6 TCC-01 = test: IFN-γ ELISpot with T cell clone
How it was run: as §2

Patient 8 TCC-01 = test: IFN-γ ELISpot with T cell clone; conditions: TCC Patient 8 TCC-01, peptide 25 μg/mL
How it was run: as §2

Patient 9 TCC-01 = test: IFN-γ ELISpot with T cell clone; conditions: TCC Patient 9 TCC-01, peptide 50 μg/mL
How it was run: as §2

Patient 9 TCC-02 = test: IFN-γ ELISpot with T cell clone; conditions: TCC Patient 9 TCC-02, peptide 50 μg/mL
How it was run: as §2

PBMC [3] = test: IFN-γ ELISpot on PBMC of CD patients on day 6 after 3-day oats challenge
How it was run: as §1

[4] = Patient 1, peptide 25 μg/ml, after barley challenge
[5] = Patient 2, peptide 25 μg/ml, after barley challenge
[6] = Patient 3, peptide 25 μg/ml, after barley challenge
[7] = 19 HLA-DQ2.5+ CD patients, peptide 10 μg/mL (FIG. 1a)
[8] = TCC Patient 2 TCC-01, peptide 25 μg/mL
[9] = TCC Patient 2 TCC-01, peptide 50 μg/mL
[10] = TCC Patient 6 TCC-01, peptide 25 μg/mL
[11] = TCC Patient 6 TCC-01, peptide 50 μg/mL

| Sequence | response following barley challenge (PBMC [1]) | patients responding following pure barley challenge (PBMC [1]) | IFN-γ ELISpot response (raw SFU) (PBMC [1]; [4]) [SFU] | significant SFU as a percentage of maximal peptide SFU (PBMC [1]; [4]) | IFN-γ ELISpot response (raw SFU) (PBMC [1]; [5]) [SFU] | significant SFU as a percentage of maximal peptide SFU (PBMC [1]; [5]) | IFN-γ ELISpot response (raw SFU) (PBMC [1]; [6]) [SFU] | significant SFU as a percentage of maximal peptide SFU (PBMC [1]; [6]) | IFN-γ ELISpot response (raw SFU) (Patient 10 TCC-01) [SFU] | IFN-γ ELISpot response (raw SFU) (Patient 14 TCC-01) [SFU] | IFN-γ ELISpot response (SFU) (Patient 2 TCC-01; [8]) | IFN-γ ELISpot response (raw SFU) (Patient 2 TCC-01; [9]) [SFU] | IFN-γ ELISpot response (SFU) (Patient 2 TCC-02) | IFN-γ ELISpot response (SFU) (Patient 2 TCC-03) | IFN-γ ELISpot response (SFU) (Patient 6 TCC-01; [10]) | IFN-γ ELISpot response (raw SFU) (Patient 6 TCC-01; [11]) [SFU] | IFN-γ ELISpot response (SFU) (Patient 8 TCC-01) | significant SFU as a percentage of maximal peptide SFU (Patient 8 TCC-01) | IFN-γ ELISpot response (raw SFU) (Patient 9 TCC-01) [SFU] | IFN-γ ELISpot response (raw SFU) (Patient 9 TCC-02) [SFU] | other results |
| --- | --- | --- | --- | --- | --- | --- | --- | --- | --- | --- | --- | --- | --- | --- | --- | --- | --- | --- | --- | --- | --- |
| PEQPIPEQPQPYPQQ | responded to all three peptides to varying degrees | All three patients responded | 317 | *** (***: >70%) | 162 | *** (***: >70%) | 142 | *** (***: >70%) | 3 | 48 | 1 | 1 | 1 | 156 | 107 | 86 | 143 | *** (***: >70%) | 4 | 2 | responses compared with DQ2.5-ave-1c responses (PBMC [1]): slightly lower; patients that did not respond to either peptide (PBMC [2]; [7]): 9 patients; patients that responded to both peptides (PBMC [2]; [7]): 8 patients; patients that responded to the hordein peptide but not the avenin peptide (PBMC [2]; [7]): 2 patients; responses compared with AAB32025 (7-21) [Q7 to pyroE, Q15 to E, and Q21 to Q-amide] responses (PBMC [2]; combined wheat, barley, and rye challenge): generally higher; significant SFU as a percentage of maximal peptide SFU (Patient 14 TCC-01): ** (**: 40-70%); significant SFU as a percentage of maximal peptide SFU (Patient 2 TCC-03): *** (***: >70%); significant SFU as a percentage of maximal peptide SFU (Patient 6 TCC-01; [10]): *** (***: >70%); significant SFU as a percentage of maximal peptide SFU (Patient 6 TCC-01; [11]): *** (***: >70%) |
| QPQPYPEQPQPYP ([pGlu]PQPYPEQPQPYP-NH2; SMILES NC(=O)CC[C@H](NC(=O)[C@H](CCC(=O)O)NC(=O)[C@@H]1CCCN1C(=O)[C@H](Cc1ccc(O)cc1)NC(=O)[C@@H]1CCCN1C(=O)[C@H](CCC(N)=O)NC(=O)[C@@H]1CCCN1C(=O)[C@@H]1CCC(=O)N1)C(=O)N1CCC[C@H]1C(=O)N[C@@H](CCC(N)=O)C(=O)N1CCC[C@H]1C(=O)N[C@@H](Cc1ccc(O)cc1)C(=O)N1CCC[C@H]1C(N)=O) | responded to all three peptides to varying degrees |  |  |  |  |  |  |  | 3 | 27 | 232 | 316 | 1 | 132 | 86 | 52 | 175 | *** (***: >70%) | 1 | 0 | responses compared with DQ2.5-hor-3a responses (PBMC [1]): almost equivalent; responses compared with DQ2.5-ave-1c responses (PBMC [1]): equivalent; significant SFU as a percentage of maximal peptide SFU (Patient 14 TCC-01): * (*: 20-40%); significant SFU as a percentage of maximal peptide SFU (Patient 2 TCC-01; [8]): *** (***: >70%); significant SFU as a percentage of maximal peptide SFU (Patient 2 TCC-01; [9]): *** (***: >70%); significant SFU as a percentage of maximal peptide SFU (Patient 2 TCC-03): *** (***: >70%); significant SFU as a percentage of maximal peptide SFU (Patient 6 TCC-01; [10]): *** (***: >70%); significant SFU as a percentage of maximal peptide SFU (Patient 6 TCC-01; [11]): ** (**: 40-70%) |
| YQPYPEQEQPILQQ | responded to all three peptides to varying degrees | All three patients responded | 59 | ^^ (^^: 10-20%) | 204.5 | *** (***: >70%) | 26 | ^^ (^^: 10-20%) | 5 | 18 | 238 | 300 | 145 | 1 | 3 | 2 | 114 | ** (**: 40-70%) | 4 | 2 | response following oats challenge (PBMC [3]; three additional patients that responded to the peptide after barley challenge): did not respond; response after previous oats challenge (PBMC [3]; three patients that responded after the combined grain challenge): no responses; responses compared with DQ2.5-hor-3a responses (PBMC [1]): lower; patients with lower polyclonal T cell responses compared with 1103203A (31-45) peptide (PBMC [1]; after barley challenge): 2/3; patients that did not respond to either peptide (PBMC [2]; [7]): 9 patients; patients that responded to both peptides (PBMC [2]; [7]): 8 patients; significant SFU as a percentage of maximal peptide SFU (Patient 2 TCC-01; [8]): *** (***: >70%); significant SFU as a percentage of maximal peptide SFU (Patient 2 TCC-01; [9]): *** (***: >70%); significant SFU as a percentage of maximal peptide SFU (Patient 2 TCC-02): ** (**: 40-70%) |
